Data from patent US20110195845A1, “Constructs for Expressing Herbicide Tolerance Genes, Related Plants, and Related Trait Combinations” (Dow AgroSciences LLC, priority 2008, published 2011).

Experiments:
[1] = tested on: E. coli BL21-Star (DE3); test: Bacterial strain response to glufosinate on minimal media; assay type: cell-based, Escherichia coli; parameters: key to bacterial growth on minimal media: +++ = Heavy Lawn Growth; ++ = Light lawn growth; + = patchy lawn growth; −− = No Growth; conditions: for bacterial growth on minimal media: 24 hrs @ 37 C
Description: Selected cell lines of Escherichia coli and Agrobacterium tumefaciens were inoculated on minimal media containing incrementally increasing concentrations of Glufosinate (BASTA). The cell lines; BL21-Star (DE3), Top10, DH5α, Agrobacterium tumefaciens C58, and Agrobacterium tumefaciens LBA4404s were initially grown up on complex media. The Escherichia coli strains were grown in LB and the Agrobacterium tumefaciens strains were grown in YEP. Five microliters of bacterial culture was inoculated and dispersed evenly onto minimal media plates containing various concentrations of glufosinate. The concentrations consisted of 0 μg/ml, 250 μg/ml, 500 μg/ml, 1000 μg/ml, 2000 μg/ml, and 4000 μg/ml of BASTA. In addition, the bacterial strains were inoculated onto a plate of complex media as a control—Agrobacterium tumefaciens strains were inoculated on YEP agar plates, and Escherichia coli strains were inoculated on LB agar plates. The plates containing the Escherichia coli strains were incubated at 37° C. for 24 hours. The plates containing the Agrobacterium tumefaciens strains were incubate at 25° C. for 48 hours. […] Table 7 illustrates the capability of the various strains to grow on minimal media containing glufosinate.

[2] = tested on: Wildtype Arabidopsis; test: Arabidopsis response to glufosinate applied postemergence; assay type: in vivo, Arabidopsis thaliana; conditions: for % Injury Ave / individuals with % Injury 20-40% / individuals with % Injury <20% / individuals with % Injury >40%: 2 WAT
Description: Seven days after planting (DAP) and again 11 DAP, T1 plants (cotyledon and 2-4-1f stage, respectively) were sprayed with a 0.016% solution of 2,4-D herbicide (456 g ae/L 2,4-D Amine 4, Dow AgroSciences LLC, Indianapolis, Ind.) at a spray volume of 10 ml/tray (703 L/ha) using a DeVilbiss compressed air spray tip to deliver an effective rate of 50 g ae/ha 2,4-D DMA per application. Survivors (plants actively growing) were identified 4-7 days after the final spraying and transplanted individually into 3-inch pots prepared with potting media (Metro Mix 360). Transplanted plants were covered with humidity domes for 3-4 days and placed in a 22° C. growth chamber as before or moved to directly to the greenhouse. Domes were subsequently removed and plants reared in the greenhouse (22±5° C., 50±30% RH, 14 h light:10 dark, minimum 500 μE/m^2s^1 natural+supplemental light) at least 1 day prior to testing for the ability of DSM-2 (v2) to provide glufosinate herbicide resistance.
T1 plants were then randomly assigned to various rates of glufosinate. For Arabidopsis 140 g ai/ha glufosinate is an effective dose to distinguish sensitive plants from ones with meaningful levels of resistance. Elevated rates were also applied to determine relative levels of resistance (280, 560, or 1120 g ai/ha).
All glufosinate herbicide applications were applied by track sprayer in a 187 L/ha spray volume. The commercial Liberty™ formulation (200 g ai/L, Bayer Crop Science, Research Triangle Park, N.C.).
The first Arabidopsis transformations were conducted using DSM-2 (v2) (plant optimized gene). T1 transformants were first selected from the background of untransformed seed using a 2,4-D DMA selection scheme. Over 100,000 T1 seed were screened and 260 2,4-D resistant plants (AAD-12 gene) were identified, equating to a transformation/selection frequency of 0.26% which is slightly higher than the normal range of selection frequency of constructs where AAD-12+2,4-D are used for selection. T1 plants selected above were subsequently transplanted to individual pots and sprayed with various rates of commercial glufosinate herbicide. Table 10 compares the response of DSM-2 (v2) and control genes to impart glufosinate resistance to Arabidopsis T1 transformants. Response is presented in terms of % visual injury 2 WAT. […] Since each T1 is an independent transformation event, one can expect significant variation of individual T1 responses within a given rate. An arithmetic mean and standard deviation is presented for each treatment. Untransformed-wildtype Arabidopsis served as a glufosinate sensitive control. The DSM-2 (v2) gene imparted herbicide resistance to individual T1 Arabidopsis plants. Within a given treatment, the level of plant response varied greatly and can be attributed to the fact each plant represents an independent transformation event. Of important note, at above 140 g ai/ha glufosinate, there were individuals that were unaffected while some were severely affected.

[3] = tested on: WT corn (5× H751× Hi II control plants); test: Corn response to glufosinate applied postemergence; assay type: in vivo; conditions: 14DAT
From the text: The seed from the cross of T1 DSM-2 (v2)×5× H751 were planted into 4-inch pots containing Metro Mix media and at 2 leaf stage were sprayed in the track sprayer set to 187 L/ha at 560 g ai/ha glufosinate to remove nulls. At 7 DAT nulls were removed and resistant plants were sprayed in the track sprayer as above at the following rates: 0, 560, 1120, 2240, and 4480 g ai/ha glufosinate. Plants were graded at 3 and 14 DAT and compared to 5× H751× Hi II control plants.

[4] = 140 g ai/ha glufosinate postemergence
[5] = 280 g ai/ha glufosinate postemergence
[6] = 560 g ai/ha glufosinate postemergence
[7] = 1120 g ai/ha glufosinate postemergence
[8] = 2240 g ai/ha glufosinate postemergence
[9] = 4480 g ai/ha glufosinate postemergence

For `CP(=O)(O)CCC(N)C(=O)O` (stereo not shown) [glufosinate], the “bacterial growth on minimal media” value ([1]; 250 μg/ml BASTA) was “−−”, the “bacterial growth on minimal media” value ([1]; 500 μg/ml BASTA) was “−−” and the “bacterial growth on minimal media” value ([1]; 1000 μg/ml BASTA) was “−−”. The “bacterial growth on minimal media” value ([1]; 2000 μg/ml BASTA) was “−−”, the “bacterial growth on minimal media” value ([1]; 4000 μg/ml BASTA) was “−−” and the “concentration in minimal media at which the cell line was inhibited” value ([1]; minimal media) was 100 µg/mL. For the same molecule, the “inhibition of strain by glufosinate” value ([1]; minimal media, 250-4000 μg/ml BASTA) was “substantially inhibited”, the “% Injury Ave” value [2, 4] was 98.0% and the “individuals with % Injury 20-40%” value [2, 4] was 0. The “individuals with % Injury <20%” value [2, 4] was 0, the “individuals with % Injury >40%” value [2, 4] was 10 and the “% Injury Ave” value [2, 5] was 100.0%. For the same molecule, the “individuals with % Injury 20-40%” value [2, 5] was 0, the “individuals with % Injury <20%” value [2, 5] was 0 and the “individuals with % Injury >40%” value [2, 5] was 10. For the same molecule, the “% Injury Ave” value [2, 6] was 100.0%, the “individuals with % Injury 20-40%” value [2, 6] was 0 and the “individuals with % Injury <20%” value [2, 6] was 0. For the same molecule, the “individuals with % Injury >40%” value [2, 6] was 10, the “% Injury Ave” value [2, 7] was 100.0% and the “individuals with % Injury 20-40%” value [2, 7] was 0. For the same molecule, the “individuals with % Injury <20%” value [2, 7] was 0, the “individuals with % Injury >40%” value [2, 7] was 10 and the “effective dose to distinguish sensitive plants from ones with meaningful levels of resistance” value ([2]; Arabidopsis) was 140 g ai/ha. The “% Injury Ave” value [3, 6] was 100%, the “individuals with % Injury 20-40%” value [3, 6] was 0 and the “individuals with % Injury <20%” value [3, 6] was 0. The “individuals with % Injury >40%” value [3, 6] was 4, the “% Injury Ave” value [3, 7] was 100% and the “individuals with % Injury 20-40%” value [3, 7] was 0. The “individuals with % Injury <20%” value [3, 7] was 0, the “individuals with % Injury >40%” value [3, 7] was 4 and the “% Injury Ave” value [3, 8] was 100%. The “individuals with % Injury 20-40%” value [3, 8] was 0, the “individuals with % Injury <20%” value [3, 8] was 0 and the “individuals with % Injury >40%” value [3, 8] was 4. The “% Injury Ave” value [3, 9] was 100%, the “individuals with % Injury 20-40%” value [3, 9] was 0 and the “individuals with % Injury <20%” value [3, 9] was 0. The “individuals with % Injury >40%” value [3, 9] was 4.
